Results from patent US6831190B1, “Guanidinomethyl cyclohexane carboxylic acid ester derivatives” (Teikoku Chemical Industries Co., Ltd., priority 1994, dated 2004).

Legend:
Assay type in all cases: cell-based
[1] = test system: Helicobacter pylori No. 3; assay: MIC, agar plating dilution, clinical segregation strain; details: Strain 6: Helicobacter pylori No. 3
Experimental: (§1) Minimum Inhibitory Concentration (MIC) was measured in accordance with the standard method of Japanese Chemotherapy Academy (Chemotherapy, 29: 76-79, 1981). Sensitivity was measured with an agar plating dilution using Brain-Heart Infusion agar (Difco Co.) which was added 0.1% of cyclodextrin. […] of the solutions of the compounds which were obtained in examples of the present invention was prepared by dissolving in dimethylsulfoxide. […] Each of 1 ml of those prepared solutions was dispensed in share, after sterilization, 9 ml of sensitivity measuring medium which is kept at 50° C. was added to each, and they were sufficiently mixed. The mixture was used as a plate for measuring sensitivity. Brain Heart Infusion agar medium (Difco Co.), which was added 0.1% of cyclodextrin, was used as bacteria growing medium, and was cultured under microair at 37° C. for three days, and the number of bacteria thereof was adjusted to about 106/ml. This was used as a bacterial solution for inoculation. The medium was painted in each square about 2 cm with nichromic line loop. The medium was cultured under microair for three days at 37° C. […] The each result is shown at Table 4.

[2] = test system: Helicobacter pylori No. 1; assay: as above; details: Strain 4: Helicobacter pylori No. 1
Experimental: as §1

[3] = test system: Helicobacter pylori No. 4; assay: as above; details: Strain 7: Helicobacter pylori No. 4
Experimental: as §1

[4] = test system: Helicobacter pylori No. 2; assay: as above; details: Strain 5: Helicobacter pylori No. 2
Experimental: as §1

[5] = test system: Escherichia coli NIH JC-2; assay: MIC, standard method of Japanese Chemotherapy Academy; details: Objected Strain 3: Escherichia coli NIH JC-2
Experimental: (§2) 1. Minimum Inhibitory Concentration (MIC) was measured in accordance with the standard method of Japanese Chemotherapy Academy (Chemotherapy, 29: 76-79, 1981).

[6] = test system: Helicobacter pylori ATCC 43504; assay: MIC, agar plating dilution (standard method of Japanese Chemotherapy Academy); details: Objected Strain 1: Helicobacter pylori ATCC 43504
Outline: (§3)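 Agar dilution MIC followed the Japanese Chemotherapy Academy standard method, on Brain Heart Infusion agar with 0.1% cyclodextrin and compounds dissolved in DMSO. Plates were incubated microaerobically at 37 °C for three days.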

[7] = test system: Helicobacter pylori ATCC 43629; assay: as above; details: Objected Strain 2: Helicobacter pylori ATCC 43629
Outline: as §3

[8] = test system: Bacillus subtilis ATCC 6633; assay: MIC, standard method of Japanese Chemotherapy Academy; details: for MIC: Strain 13: Bacillus subtilis ATCC 6633; for MIC against bacillus subcillus ATCC 6633: standard method of Japanese Chemotherapy Academy
Experimental: as §2
(§4) And MIC of the compounds of Example 3, 36, 8, 14, 17, 21, 41 and 45 were measured.

[9] = test system: Staphylococcus aureus ATCC 6538; assay: as above; details: Strain 12: Staphylococcus aureus ATCC 6538
Experimental: as §2, §4

[10] = test system: Staphylococcus aureus 209PJC; assay: as above; details: Strain 11: Staphylococcus aureus 209PJC
Experimental: as §2, §4

[11] = test system: Staphylococcus aureus No. 2 (MRSA); assay: as above; details: Strain 14: Staphylococcus aureus No. 2 (MRSA)
Experimental: as §2, §4

[12] = test system: Helicobacter pylori No. 20; assay: MIC, agar plating dilution, clinical segregation strain; details: Strain 9: Helicobacter pylori No. 20
Experimental: as §1

[13] = test system: Helicobacter pylori No. 28; assay: as above; details: Strain 10: Helicobacter pylori No. 28
Experimental: as §1

[14] = test system: Helicobacter pylori No. 19; assay: as above; details: Strain 8: Helicobacter pylori No. 19
Experimental: as §1

Row | SMILES | MIC [1] | MIC [2] | MIC [3] | MIC [4] | MIC [5] | MIC [6] | MIC [7] | MIC [8] | MIC against bacillus subcillus ATCC 6633 [8] | MIC [9] | MIC [10] | MIC [11] | MIC [12] | MIC [13] | MIC [14]
1 | Cl.N=C(N)NC[C@H]1CC[C@H](C(=O)Oc2ccc(-c3ccc(C(=O)OCc4ccc(C(F)(F)F)cc4)cc3)cc2)CC1 [Example 21, trans-4-guanidinomethyl cyclohexane carboxylic acid [4-[4-(4-trifuluoromethyl benzyloxycarbonyl)phenyl]phenylester].hydrochloride] | 0.10 µg/mL | 0.20 µg/mL | 0.39 µg/mL | 0.39 µg/mL | >25 µg/mL | 0.39 µg/mL | 0.78 µg/mL | >25 µg/mL | > 25 µg/mL | >25 µg/mL | 25 µg/mL | >25 µg/mL |  |  | 
2 | Cl.N=C(N)NC[C@H]1CC[C@H](C(=O)Oc2ccc(-c3ccc(C(=O)OCc4ccccc4)cc3)cc2)CC1 [Example 3, trans-4-guanidinomethyl cyclohexane carboxylic acid [4-(4-benzyloxycarbonylphenyl)phenylester].hydrochloride] | 0.10 µg/mL | 0.20 µg/mL | 0.39 µg/mL | 0.39 µg/mL | >25 µg/mL | 0.78 µg/mL | 0.39 µg/mL | 25 µg/mL | > 25 µg/mL | 6.25 µg/mL | 3.13 µg/mL | 3.13 µg/mL |  |  | 
3 | Cc1ccc(CCOC(=O)c2ccc(-c3ccc(OC(=O)[C@H]4CC[C@H](CNC(=N)N)CC4)cc3)cc2)cc1.Cl [Example 46, trans-4-guanidinomethyl cyclohexane carboxylic acid[4-[4-[2-(4-methylphenyl)ethyloxycarbonyl)phenyl]phenylester].hydrochloride] | 0.20 µg/mL | 0.39 µg/mL | 3.13 µg/mL | 0.39 µg/mL | >25 µg/mL | 0.78 µg/mL | 0.78 µg/mL |  |  |  |  |  | 0.20 µg/mL | 0.39 µg/mL | 0.39 µg/mL
4 | Cc1cccc(COC(=O)c2ccc(-c3ccc(OC(=O)[C@H]4CC[C@H](CNC(=N)N)CC4)cc3)cc2)c1.Cl [Example 44, trans-4-guanidinomethyl cyclohexane carboxylic acid[4-[4-(3-methylbenzyloxycarbonyl)phenyl]phenylester].hydrochloride] | 0.20 µg/mL | 0.39 µg/mL | 0.78 µg/mL | 0.39 µg/mL | >25 µg/mL | 0.20 µg/mL | 0.20 µg/mL |  |  |  |  |  | 0.20 µg/mL | 0.39 µg/mL | 0.20 µg/mL
5 | CC(C)(C)c1ccc(COC(=O)c2ccc(-c3ccc(OC(=O)[C@H]4CC[C@H](CNC(=N)N)CC4)cc3)cc2)cc1.Cl [Example 17, trans-4-guanidinomethyl cyclohexane carboxylic acid [4-[4-(4-t-butylbenzyloxy carbonyl)phenyl]phenylester].hydrochloride] | 0.20 µg/mL | 0.20 µg/mL | 0.20 µg/mL | 0.39 µg/mL | >25 µg/mL | 0.78 µg/mL | 0.39 µg/mL | >25 µg/mL | > 25 µg/mL | >25 µg/mL | >25 µg/mL | >25 µg/mL |  |  | 
6 | Cc1ccccc1COC(=O)c1ccc(-c2ccc(OC(=O)[C@H]3CC[C@H](CNC(=N)N)CC3)cc2)cc1.Cl [Example 43, trans-4-guanidinomethyl cyclohexane carboxylic acid[4-[4-(2-methylbenzyloxycarbonyl)phenyl]phenylester].hydrochloride] | 0.20 µg/mL | 0.20 µg/mL | 0.78 µg/mL | 0.20 µg/mL | >25 µg/mL | 0.20 µg/mL | 0.39 µg/mL |  |  |  |  |  | 0.39 µg/mL | 0.39 µg/mL | 0.10 µg/mL
